Data published in patent US12252472B1, “Barbituric acid derivatives, their preparation and use thereof as leukocyte transmigration inhibitors and for treating inflammatory diseases, autoimmune diseases and cancer” (BAR-ILAN UNIVERSITY, priority 2017, dated 2025).
pIC50: −log10 of the molar value.

Assays:
[1] = system: primary human monocytes on TNF-alpha-activated HUVECs; test: Shear flow assay: monocyte adhesion and transmigration on TNFα-activated HUVECs; format: cell-based; settings: for Monocyte adhesion / Level of Transmigration Blockage (%) / inhibition at 30 µM: 30 μM; for Monocyte adhesion: flow 0.05 Pa for 30 minutes; for Level of Transmigration Blockage (%): monocytes on TNF-activated HUVECs under flow 0.05 Pa; for inhibition at 30 µM: Table 2, read-out: monocyte-rolling inhibition
Source text: A flow assay that allows detailed analysis of individual leukocyte interactions with endothelial cells (ECs), described in Bradfield et al. (Bradfield et al., 2016, PloS One, July 21; 11(7); Bradfield et al., 2007, Blood. October 1; 110(7):2545-55) was used for evaluation of the biological effects of the compounds according to the invention. This method allows the determination of the possible effects of the compounds on three major phases in leukocyte migration: the capture of free non-bound leukocytes by endothelium, migration of leukocytes on the endothelium surface, and transendothelial migration (transmigration) of human leukocytes through the HUVECs layer. Post transmigrational events can also be monitored by tracking individual leukocytes. […] Human umbilical vein endothelial cells (HUVECs) were cultivated in the plastic channel of the flow chamber, and human leukocyte were flowed over them using a calibrated pump, allowing monocyte capture, adhesion and migration to be monitored.
Human umbilical vein endothelial cells (HUVEC) were isolated by collagenase treatment of umbilical veins as previously described (Wall, R. T., et al., Factors influencing endothelial cell proliferation in vitro. J Cell Physiol, 1978. 96(2): p. 203-13) and maintained in M199 containing 20% fetal calf serum (FCS), 15 μg/mL endothelial cell growth supplement (Upstate Biotechnology, Lake Placid, NY), 100 μg/mL heparin, 50 μM hydrocortisone, and 10 μg/mL vitamin C. Cells were cultured up to a maximum of passage 5.
Peripheral blood mononuclear cells (PBMCs) were first isolated from blood of healthy donors followed by monocyte purification using a monocyte isolation kit (Miltenyi Biotec, Bergisch Gladbach, Germany). Purity and activity of monocytes were controlled by flow cytometry by labelling with anti-CD14 and anti-CD62L. Only populations of 90% or more double positive cells were used.
(§1) Flow assays were conducted as described in a previous study (Bradfield, P. F., et al., JAM-C regulates unidirectional monocyte transendothelial migration in inflammation. Blood, 2007. 110(7): p. 2545-55). HUVECs were cultured at 1×10^5 cells/slide on Ibidi 6-chamber slides (80606; Ibidi) before treatment with TNFα (500 U/mL) for 6-10 hours. An individual chamber outlet was then attached to a calibrated pump (74 900; Cole Partner, Vernon Hills, IL) and flow was generated by perfusing wash buffer (M199 with 0.15% BSA) or a monocyte suspension (2.5×10^6 cells/mL) over the HUVEC monolayer. The flow rate was representative of shear rates in small venules (0.05 Pa). Observations made using phase-contrast microscopy (Model: Axiovert 100; Objective: 20×/0.3 NA air; Carl Zeiss) were recorded using a high-resolution camera (D70; Nikon, Zurich, Switzerland). Individual images were recorded every 30 seconds with Nikon capture software (v4.2) and compiled into movie sequences using Adobe Photoshop (CS6) and Image J (v1.5d), allowing analysis of individual monocytes over large areas. The tested compounds, e.g. compounds of the general Formula (I), were maintained at the specified concentration in all wash buffers throughout the course of the experiment. The compounds were preincubated separately on both HUVECs and monocytes 15 minutes prior to flow co-culture. HUVEC monolayers were washed for 10 minutes prior to a compound wash-in step to allow for this preincubation period. The monocyte suspension was then perfused over HUVECs for 4 minutes followed by 20 to 60 minutes with wash buffer. Time-lapse recording was started upon monocyte first-contact with the monolayer. Monocyte adhesion data are presented as the total number of monocytes per unit field. Transmigration events are presented as a percentage of total monocytes captured from flow per unit field. All experiments were carried out using quadruplicate fields and are presented as a mean value (±SEM).
A timeline is shown to represent the positioning and timing of an individual monocyte during movie analysis (marked ‘Timeline’). […]

B cells = test: B-lymphocyte adhesion and transmigration, MesenFlow assay; format: cell-based; settings: 30 μg/ml
Experimental: as §1, with “HUVEC monolayers were washed for 10 minutes prior to a compound wash-in step to allow for this preincubation period. The monocyte suspension was then perfused over HUVECs for 4 minutes followed by 20 to 60 minutes with wash buffer. Time-lapse recording was started upon monocyte first-contact with the monolayer. Monocyte adhesion data are presented as the total number of monocytes per unit field. Transmigration events are presented as a percentage of total monocytes captured from flow per unit field. All experiments were carried out using quadruplicate fields and are presented as a mean value (±SEM).” left out

| Molecule | Monocyte adhesion [1] | Level of Transmigration Blockage (%) [1] [%] | inhibition at 30 µM ([1]; Homo sapiens, HUVEC) [%] | also measured |
| --- | --- | --- | --- | --- |
| O=C1NC(=O)C(=Cc2c3ccccc3cc3ccccc23)C(=O)N1 [Formula 10, 5-(anthracen-9-ylmethylene)pyrimidine-2,4,6(1H,3H,5H)-trione] | unaffected | 92 | > 90 | pIC50 ([1]; Homo sapiens, HUVEC, flow 0.05 Pa, n=3): 6.52; Emax ([1]; Homo sapiens, HUVEC, monocyte transmigration inhibition, read-out: maximal efficacy): 40%; concentration below which not active on monocyte transmigration ([1]; dose response, 100 μM to 3 nM): below 30 nM; monocyte transmigration ([1]; dose response, concentrations higher than 30 nM): partial effect; monocyte transmigration ([1]; dose response, high concentrations (100 μM)): Total blocking; time of the maximal effect ([1]; monocyte transmigration, read at 10, 15, 20 and 25 minutes): 25 min |
| O=C1NC(=O)C(=Cc2ccccc2OCc2cccc(C(=O)O)c2)C(=O)N1 [Formula 6, 3-((2-((2,4,6-trioxo-tetrahydropyrimidin-5(6H)-ylidene)methyl)phenoxy)methyl)benzoic acid] |  | 78 |  |  |
| COC(=O)c1cccc(COc2cccc(C=C3C(=O)NC(=O)NC3=O)c2)c1 [Formula 9, Methyl 3-((3-((2,4,6-trioxo-tetrahydropyrimidin-5(2H)-ylidene)methyl)phenoxy)methyl) benzoate] | unaffected | 98 | > 90 |  |
| COC(=O)c1ccc(COc2c(C)cc(C=C3C(=O)NC(=O)NC3=O)cc2C)cc1 [Formula 4, Methyl 4-((2,6-dimethyl-4-((2,4,6-trioxotetrahydro-pyrimidin-5(2H)ylidene)methyl)phenoxy)methyl) benzoate] |  | 75 |  |  |
| COC(=O)c1ccc(COc2cccc(C=C3C(=O)NC(=O)NC3=O)c2)cc1 [Formula 1, Methyl 4-((3-((2,4,6-trioxo-tetrahydropyrimidin-5(2H)-ylidene)methyl)phenoxy)methyl) benzoate] |  | 81 |  |  |
| Tysabri®: an antibody against alpha 4 integrin, used as a positive control [reference compound] |  |  |  | number of transmigrated B cells (B cells): no net effect |
